Patent US6329400A, “Formamide compounds as therapeutic agents” (Glaxo Wellcome Inc., priority 1998, dated 2001)

Assays:
[1] = biological target: 20 kD truncated collagenase-3 (MMP-13); assay: Matrix Metalloprotease Inhibition Protocol, collagenase-3; assay type: biochemical; details: fluorogenic substrate, pH 7.6; IC50 equivalent to Ki at [S]<<Km
Experimental: (§1) A. Matrix Metalloprotease Inhibition Protocol
(§2) Assays are conducted in a total volume of 0.180 mL assay buffer (200 mM NaCl, 50 mM Tris, 5 mM CaCl2, 10 μM ZnSO4, 0.005% Brij 35, pH 7.6) in each well of a black 96 well microtiter plate. 19 kD collagenase-1, 20 kD collagenase-3, stromelysin-1,and 50 kD gelatinase B concentrations are adjusted to 500 pM, 30 pM, 5 nM, and 100 pM, respectively. A dose response is generated using an eleven-point, 3-fold serial dilution with initial starting test compound concentrations of 100, 10, or 1 μM. Inhibitor and enzyme reactions are incubated for 30 minutes at ambient temperature and then initiated with 10 μM fluorogenic substrate (above). The product formation is measured at Excitation343 /Emission450 nm after 45-180 minutes using a Fluostar SLT fluorescence analyzer. Percent inhibition is calculated at each inhibitor concentration and the data were plotted using standard curve fitting programs. IC50 values were determined from these curves.

[2] = biological target: 50 kD truncated gelatinase B (MMP-9); assay: Matrix Metalloprotease Inhibition Protocol, gelatinase B; assay type: biochemical; details: fluorogenic substrate, pH 7.6; IC50 equivalent to Ki at [S]<<Km
Experimental: as §1, §2

stromelysin-1 (MMP-3) = stromelysin-1 (MMP-3) (Homo sapiens, UniProt P08254); assay: Matrix Metalloprotease Inhibition Protocol, stromelysin-1; assay type: biochemical; details: fluorogenic substrate, pH 7.6; IC50 equivalent to Ki at [S]<<Km
Experimental: as §1
as §2, with “curves. Assays were run at low substrate concentration ([S]<<Km) such that the calculated IC50 values are equivalent to Ki within experimental error.” for “curves.”

[3] = biological target: T1, 19 kD truncated collagenase-1 (MMP-1) (Homo sapiens, UniProt P03956); assay: Matrix Metalloprotease Inhibition Protocol, collagenase-1; assay type: biochemical; details: fluorogenic substrate, pH 7.6; IC50 equivalent to Ki at [S]<<Km
T1 construct: 19 kD truncated collagenase-1 (MMP-1)
T1 sequence (P03956 101-269 limits assumed): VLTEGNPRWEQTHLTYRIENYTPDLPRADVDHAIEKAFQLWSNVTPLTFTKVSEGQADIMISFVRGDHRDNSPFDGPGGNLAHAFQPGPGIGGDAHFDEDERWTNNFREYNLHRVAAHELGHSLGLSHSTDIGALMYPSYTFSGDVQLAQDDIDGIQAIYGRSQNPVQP
Experimental: as §1
as §2, with “curves. Assays were run at low substrate concentration ([S]<<Km) such that the calculated IC50 values are equivalent to Ki within experimental error.” for “curves.”

TNFα converting enzyme = biological target: T2, TNFα converting enzyme (Homo sapiens, UniProt P78536); assay: TNFα Converting Enzyme Inhibition Protocol; assay type: biochemical; details: cell-free, MonoMac 6 membrane preparation; IC50 equivalent to Ki at [S]<<Km
T2 construct: Membrane preparation from MonoMac 6 cells; endogenous in cells; host or cells: MonoMac 6 cells (membrane preparation, subfractionated extract)
Experimental: B. TNFα Converting Enzyme Inhibition Protocol
The reaction is quenched by addition of streptavidin SPA beads (Amersham RPNQ0006), with excess binding capacity relative to substrate, suspended in 250 mM EDTA, pH 8.0. Binding is complete within 15 minutes and plates are counted in a Wallac 1450 Microbeta liquid scintillation counter. Percent inhibition is calculated at each inhibitor concentration and the data were plotted using standard curve fitting programs. IC50 values were determined from these curves.

[4] = tested on: TNFα release from MonoMac 6 cells; assay: Cell-Based TNFα Release Inhibition Protocol; details: Homo sapiens, MONO-MAC-6; LPS/PMA-stimulated MonoMac 6 cells, 37° C., 2 hours
Experimental: C. Cell-Based TNFα Release Inhibition Protocol
This solution is then diluted 1:1000 (40 ng/mL and 120 ng/mL) for use later in the assay. Compounds (10 mM) are serially diluted 1:3 in DMSO. Compound dilutions (20 μL) are added to a sterile round bottom 96 well plate (20 μL:200 μL total volume=1:10 for final concentrations of 50 μM for test compounds). MonoMac 6 cell suspension (130 μL, 1.5×10^6 cells/mL) is then added to each well resulting in 2×10^5 cells/well. LPS/PMA (50 μL) solution is then added to each well to begin stimulation (final concentrations of 10 ng/mL and 30 ng/mL respectively). The plate is incubated at 37° C. for 2 hours then spun at 1,500 rpm for 3 minutes to pellet cells. The supernatant (120 μL/well) is removed to a new round bottom 96 well plate and diluted 1:10 in PBS. Then, 20 μL of the supernatant is transferred to a Cistron TNFα ELISA plate and processed according to the manufacturer's instructions to quantitate levels of TNFα. Percent inhibition of TNFα release is calculated at each inhibitor concentration and the data were plotted using standard curve fitting programs. IC50 values were determined from these curves.

serum TNFα = assay: Murine LPS-Stimulated Serum TNF Inhibition Protocol; assay type: in vivo; details: 40 mg/kg, 10 min prior to LPS, mice, 90 min after LPS
Experimental: Murine LPS--Stimulated Serum TNF Inhibition Protocol
The potency of compounds of the invention as inhibitors of serum TNFα elevation in mice treated with lipopolysaccharide (LPS) is determined as follows; a) for subcutaneous (s.c.) administration, test compound is dissolved in DMSO and added to a mixture of 0.9% sodium chloride solution and 30% Trappsol HPB-20 (Cyclodextrin Technology Development Inc., Gainesville, Fla. USA) for a final DMSO concentration of 1%. The dosing solution is sonicated briefly and 0.2 mL is injected subcutaneously 10 min prior to LPS injection, b) for per oral (p.o.) administration, test compounds are formulated in 0.2 mL of PBS and 0.1% Tween 80 and given orally via gavage 10 min prior to LPS administration.
C3/hen female mice are injected intraperitoneally with 200 μg/kg LPS (Escherichia coli, Serotype 0111:B4, Sigma Chemical Co, St. Louis, Mo.) in PBS and sacrificed 90 min later by CO2 asphyxiation. Blood is immediately taken from the caudal vena cava and plasma prepared and frozen at -80° C. Plasma concentrations of TNF are measured by ELISA (Genzyme Co., Cambridge Mass.).

T2 sequence (P78536 215-824): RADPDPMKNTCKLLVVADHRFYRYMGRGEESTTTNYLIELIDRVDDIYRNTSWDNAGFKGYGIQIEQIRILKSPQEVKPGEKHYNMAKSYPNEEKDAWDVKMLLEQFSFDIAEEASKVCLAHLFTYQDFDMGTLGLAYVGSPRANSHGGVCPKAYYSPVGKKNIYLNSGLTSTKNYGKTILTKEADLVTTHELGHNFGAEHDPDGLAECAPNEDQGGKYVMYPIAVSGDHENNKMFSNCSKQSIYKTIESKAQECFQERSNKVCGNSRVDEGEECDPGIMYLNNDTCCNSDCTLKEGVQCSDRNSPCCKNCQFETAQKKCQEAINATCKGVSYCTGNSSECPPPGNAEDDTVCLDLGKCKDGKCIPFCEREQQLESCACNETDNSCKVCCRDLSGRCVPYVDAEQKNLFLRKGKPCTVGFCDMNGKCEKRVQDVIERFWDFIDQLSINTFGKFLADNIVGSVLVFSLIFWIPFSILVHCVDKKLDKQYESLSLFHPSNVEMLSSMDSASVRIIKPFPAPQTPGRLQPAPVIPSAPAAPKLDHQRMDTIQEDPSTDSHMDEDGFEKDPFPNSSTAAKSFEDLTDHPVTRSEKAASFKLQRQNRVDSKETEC
Chain of stromelysin-1 (MMP-3) (P08254 100-477): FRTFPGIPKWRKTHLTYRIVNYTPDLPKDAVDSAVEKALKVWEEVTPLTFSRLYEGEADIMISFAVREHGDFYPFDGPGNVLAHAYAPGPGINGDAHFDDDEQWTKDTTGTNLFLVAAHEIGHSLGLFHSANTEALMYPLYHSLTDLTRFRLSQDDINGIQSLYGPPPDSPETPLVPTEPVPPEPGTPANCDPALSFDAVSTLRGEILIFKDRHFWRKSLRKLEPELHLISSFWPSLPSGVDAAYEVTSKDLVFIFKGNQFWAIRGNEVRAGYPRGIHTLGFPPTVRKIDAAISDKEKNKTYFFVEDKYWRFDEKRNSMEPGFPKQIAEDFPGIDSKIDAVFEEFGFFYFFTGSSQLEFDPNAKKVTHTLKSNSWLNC

SMILES	Ki [1] [nM]	Ki [2] [nM]	Ki (stromelysin-1 (MMP-3)) [nM]	Ki [3] [nM]	Ki (TNFα converting enzyme) [nM]	IC50 [4] [nM]	Percentage Inhibition of Serum TNFα (serum TNFα; s.c.)	Percentage Inhibition of Serum TNFα (serum TNFα; p.o.)
C[C@@H]([C@@H](CCCc1ccccc1)C(=O)N[C@H](C(=O)Nc1cccnc1)C(C)(C)C)N(O)C=O [Example 1, (2R,3S)-3-(Formyl-hydroxyamino)-2-(3-phenyl-1-propyl)butanoic Acid [(1S)-2,2-Dimethyl-1-(pyridine-3-ylcarbamoyl)-1-propyl]amide]	< 100	< 100	< 100	< 100	500 to 1000			
C[C@@H]([C@@H](CC1CCC(c2ccccc2)CC1)C(=O)N[C@H](C(=O)Nc1nccs1)C(C)(C)C)N(O)C=O (stereo partly drawn) [Example 2, (2R,3S)-3-(Formyl-hydroxyamino)-2-(4-phenylcyclohexylmethyl)butanoic Acid [(1S)-2,2-Dimethyl-1-(1,3-thiazol-2-ylcarbamoyl)-1-propyl]amide]	< 100	100 to 500	100 to 500	500 to 1000	< 100	> 1000		
CCC[C@@H]([C@@H](CCCc1ccccc1)C(=O)N[C@@H](CCCCNC(=O)OCc1ccccc1)C(=O)Nc1nncs1)N(O)C=O [Example 3, (2R,3S)-3-(Formyl-hydroxyamino)-2-(3-phenyl-1-propyl)hexanoic Acid [(1S)-5-Benzyloxycarbonylamino-1-(1,3,4-thiadiazol-2-yl-carbamoyl)-1-pentyl]amide]			< 100	> 1000	< 100	100 to 500		
CCC[C@@H]([C@@H](CCCc1ccoc1)C(=O)N[C@@H](CCCCNC(=O)OCc1ccccc1)C(=O)Nc1nccs1)N(O)C=O [Example 4, (2R,3S)-3-(Formyl-hydroxyamino)-2-(3-(3-furyl)-1-propyl)hexanoic Acid [(1S)-5-Benzyloxycarbonylamino-1-(1,3-thiazol-2-ylcarbamoyl)-1-pentyl]amide]	< 100	100 to 500	< 100	> 1000	< 100	< 100		
CCC[C@@H]([C@@H](CCCc1ccoc1)C(=O)N[C@H](C(=O)Nc1nccs1)C(C)(C)C)N(O)C=O [Example 5, (2R,3S)-3-(Formyl-hydroxyamino)-2-(3-(3-furyl)-1-propyl)hexanoic Acid [(1S)-2,2-Dimethyl-1-(1,3-thiazol-2-ylcarbamoyl)-1-propyl]amide]	< 100	< 100	< 100	500 to 1000		100 to 500		
CCC[C@@H]([C@H](COCc1ccccc1)C(=O)N[C@@H](CCCCNC(=O)OCc1ccccc1)C(=O)Nc1nccs1)N(O)C=O [Example 6, (2R,3S)-3-(Formyl-hydroxyamino)-2-(benzyloxymethyl)hexanoic Acid [(1S)-5-Benzyloxycarbonylamino-1-(1,3-thiazol-2-ylcarbamoyl)-1-pentyl]amide]	100 to 500	> 1000	100 to 500	> 1000	< 100	> 1000		
CCC[C@@H]([C@@H](CC(C)Cc1ccccc1)C(=O)N[C@H](C(=O)Nc1nccs1)C(C)(C)SCCNC(=O)OCc1ccccc1)N(O)C=O (stereo partly drawn) [Example 7, (2R,3S)-3-(Formyl-hydroxyamino)-2-(3-phenyl-2-methyl-1-propyl)hexanoic Acid [(1R)-2-Methyl-2-(2-benzyloxycarbonylamino-1-ethylsulfanyl)-1-(1,3-thiazol-2-ylcarbamoyl)-1-propyl]-amide]	500 to 1000	> 1000	> 1000	> 1000	100 to 500	> 1000		
CCC[C@@H]([C@@H](CC(C)Cc1ccccc1)C(=O)N[C@H](C(=O)Nc1nccs1)C(C)(C)C)N(O)C=O (stereo partly drawn) [Example 8, (2R,3S)-3-(Formyl-hydroxyamino)-2-(3-phenyl-2-methyl-1-propyl)hexanoic Acid [(1S)-2,2-Dimethyl-1-(1,3-thiazol-2-ylcarbamoyl)-propyl]amide]	100 to 500	> 1000	> 1000	> 1000	< 100	> 1000		
CCC[C@@H]([C@@H](CC(C)Cc1ccccc1)C(=O)N[C@@H](CCCCNC(=O)OCc1ccccc1)C(=O)Nc1nccs1)N(O)C=O (stereo partly drawn) [Example 9, (2R,3S)-3-(Formyl-hydroxyamino)-2-(3-phenyl-2-methyl-1-propyl)hexanoic Acid [(1S)-5-Benzyloxycarbonylamino-1-(1,3-thiazol-2-ylcarbamoyl)-1-pentyl]amide]	500 to 1000	> 1000	> 1000	> 1000		100 to 500		
CCC[C@@H]([C@@H](Cc1ccc(C)s1)C(=O)N[C@H](C(=O)Nc1nccs1)[C@@H](C)OCc1ccccn1)N(O)C=O [Example 146, (2R,3S)-3-(Formyl-hydroxyamino)-2-(5-methyl-2-thiophenemethyl)hexanoic Acid [(1S,2R)-2-(2-Pyridylmethoxy)-1-(1,3-thiazol-2-ylcarbamoyl)-1-propyl]amide]							++ (50%-75%)	
CC(C)(C)[C@H](NC(=O)[C@H](CCCc1ccccc1)[C@H](CCC(F)(F)F)N(O)C=O)C(=O)Nc1nccs1 [Example 183, (2R,3S)-3-(Formyl-hydroxyamino)-2-(3-phenyl-1-propyl)-6,6,6-trifluorohexanoic Acid [(1S)-2,2-Dimethyl-1-(1,3-thiazol-2-ylcarbamoyl)-1-propyl]amide]	< 100	< 100	100 to 500	> 1000	100 to 500			++ (50%-75%)
C[C@@H]([C@@H](CCCc1ccc(Cl)cc1)C(=O)N[C@H](C(=O)Nc1cccnc1)C(C)(C)C)N(O)C=O [Example 195, (2R,3S)-3-(Formyl-hydroxyamino)-2-(3-(4-chlorophenyl)-1-propyl)butanoic Acid [(1S)-2,2-Dimethyl-1-(pyridine-3-ylcarbamoyl)-1-propyl]amide]	< 100	< 100	< 100	< 100	> 1000			
